# According to ChEMBL document CHEMBL1799982, “Synthesis, protein kinase inhibitory potencies, and in vitro antiproliferative activities of meridianin derivatives” (J Med Chem, 2011):
# Experiments:
# PC-3 = experiment: Antiproliferative activity against human PC3 cells after 48 hrs by resazurin reduction test; conditions: PC-3, 48 h
# [1] = target: Dual specificity tyrosine-phosphorylation-regulated kinase 1A (Rattus norvegicus, UniProt Q63470); experiment: Inhibition of rat recombinant GST-tagged DYRK1A using myelin protein as substrate and [gamma32]-ATP after 30 mins by scintillation counting
# [2] = Inhibition of pig brain CK1 delta/epsilon using RRKHAAIGpSAYSITA as substrate; parameters: species or system Sus scrofa
# PA-1 = experiment: Antiproliferative activity against human PA1 cells after 48 hrs by resazurin reduction test; format: functional, cell-based; conditions: PA-1, 48 h
# [3] = target: Cyclin-dependent kinase 5/CDK5 activator 1 (Homo sapiens, UniProt Q00535); experiment: Inhibition of human recombinant CDK5/p25 using Histone H1 and [gamma32]-ATP after 30 mins by scintillation counting; format: protein-complex assay
# Sequence of Cyclin-dependent kinase 5/CDK5 activator 1 (Q00535 whole entry): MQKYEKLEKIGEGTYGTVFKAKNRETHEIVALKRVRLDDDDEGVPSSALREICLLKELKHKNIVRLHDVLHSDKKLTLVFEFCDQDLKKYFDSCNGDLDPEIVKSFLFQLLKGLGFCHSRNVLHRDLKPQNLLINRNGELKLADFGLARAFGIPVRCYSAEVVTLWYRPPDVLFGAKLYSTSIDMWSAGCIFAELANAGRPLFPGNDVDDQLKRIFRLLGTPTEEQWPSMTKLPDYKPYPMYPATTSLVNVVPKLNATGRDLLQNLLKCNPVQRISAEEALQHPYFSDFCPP
# Sequence of Cyclin-dependent kinase 5/CDK5 activator 1 (Q15078 whole entry, further chain): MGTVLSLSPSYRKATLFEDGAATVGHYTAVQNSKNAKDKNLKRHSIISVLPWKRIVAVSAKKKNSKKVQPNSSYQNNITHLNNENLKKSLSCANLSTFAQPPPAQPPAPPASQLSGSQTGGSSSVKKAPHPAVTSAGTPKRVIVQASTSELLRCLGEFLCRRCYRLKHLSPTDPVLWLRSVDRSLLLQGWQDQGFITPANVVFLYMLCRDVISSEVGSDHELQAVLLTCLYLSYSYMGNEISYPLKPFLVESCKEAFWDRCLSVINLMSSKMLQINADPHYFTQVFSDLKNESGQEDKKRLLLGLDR
# [4] = Antiproliferative activity against human primary fibroblasts after 48 hrs by resazurin reduction test; format: cell-based; conditions: Fibroblast
# MCF7 = experiment: Antiproliferative activity against human MCF7 cells after 48 hrs by resazurin reduction test; conditions: MCF7, 48 h
# [5] = target: Glycogen synthase kinase-3 (Sus scrofa, UniProt B2LUN4+I6LNT8); experiment: Inhibition of pig brain GSK-3alpha/beta using YRRAAVPPSPSLSRHSSPHQSpEDEEE as substrate
# HT-22 = experiment: Antiproliferative activity against mouse HT22 cells by MTS reduction assay
# SH-SY5Y = experiment: Antiproliferative activity against human SH-SY5Y cells by MTS reduction assay
# IMR-32 = experiment: Antiproliferative activity against human IMR32 cells by MTS reduction assay
# [6] = target: Dual specificity protein kinase CLK1 (Homo sapiens, UniProt P49759)
# Sequence of Dual specificity protein kinase CLK1 (P49759 whole entry): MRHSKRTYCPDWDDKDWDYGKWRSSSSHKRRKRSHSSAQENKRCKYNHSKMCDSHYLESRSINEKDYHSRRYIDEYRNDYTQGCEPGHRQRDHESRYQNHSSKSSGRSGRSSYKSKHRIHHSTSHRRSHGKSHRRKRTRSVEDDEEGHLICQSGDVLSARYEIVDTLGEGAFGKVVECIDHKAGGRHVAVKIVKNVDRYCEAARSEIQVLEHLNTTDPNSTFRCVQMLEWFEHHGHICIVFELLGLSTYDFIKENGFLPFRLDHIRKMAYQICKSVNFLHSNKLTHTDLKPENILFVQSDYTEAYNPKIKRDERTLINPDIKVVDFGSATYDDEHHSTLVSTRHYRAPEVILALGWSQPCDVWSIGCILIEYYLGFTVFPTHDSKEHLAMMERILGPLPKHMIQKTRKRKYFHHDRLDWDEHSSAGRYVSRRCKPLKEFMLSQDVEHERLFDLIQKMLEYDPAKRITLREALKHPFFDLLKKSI
# DU-145 = experiment: Antiproliferative activity against human DU145 cells after 48 hrs by resazurin reduction test; format: functional, cell-based; conditions: DU-145, 48 h
structure (smiles),measurement,setting,value
CC(=O)Nc1ccc(-c2cnc(N)nc2-c2c[nH]c3cc(Br)ccc23)cc1,IC50,PC-3,14 µM
same,IC50,[1],3.1 µM
same,IC50,[2],8.1 µM
same,IC50,PA-1,12 µM
same,IC50,[3],> 10 µM
same,IC50,[4],24 µM
same,IC50,MCF7,> 10 µM
same,IC50,[5],1.6 µM
same,IC50,HT-22,> 10 µM
same,IC50,SH-SY5Y,> 10 µM
same,IC50,IMR-32,> 10 µM
same,IC50,[6],0.53 µM
same,IC50,DU-145,20 µM
CC(=O)Nc1ccc(-c2cnc(N)nc2-c2c[nH]c3c(Br)cccc23)cc1,IC50,PC-3,5 µM
same,IC50,[1],0.19 µM
same,IC50,[2],> 10 µM
same,IC50,PA-1,3 µM
same,IC50,[3],7.5 µM
same,IC50,[4],8 µM
same,IC50,MCF7,> 25 µM
same,IC50,[5],2.2 µM
same,IC50,HT-22,> 25 µM
same,IC50,SH-SY5Y,25 µM
same,IC50,IMR-32,25 µM
same,IC50,[6],0.087 µM
same,IC50,DU-145,13 µM
Nc1ncc(-c2ccc(C(F)(F)F)cc2)c(-c2c[nH]c3c(Br)cccc23)n1,IC50,PC-3,8 µM
same,IC50,[1],1.25 µM
same,IC50,[2],> 10 µM
same,IC50,PA-1,17 µM
same,IC50,[3],> 10 µM
same,IC50,[4],14 µM
same,IC50,MCF7,> 10 µM
same,IC50,[5],8.5 µM
same,IC50,HT-22,> 10 µM
same,IC50,SH-SY5Y,> 10 µM
same,IC50,IMR-32,> 10 µM
same,IC50,[6],1.5 µM
same,IC50,DU-145,18 µM
COc1cccc(-c2cnc(N)nc2-c2c[nH]c3c(Br)cccc23)c1,IC50,PC-3,29 µM
same,IC50,[1],0.85 µM
same,IC50,[2],4.2 µM
same,IC50,PA-1,13 µM
same,IC50,[3],> 10 µM
same,IC50,[4],31 µM
same,IC50,MCF7,> 10 µM
same,IC50,[5],> 10 µM
same,IC50,HT-22,> 10 µM
same,IC50,SH-SY5Y,> 10 µM
same,IC50,IMR-32,> 10 µM
same,IC50,[6],0.87 µM
same,IC50,DU-145,33 µM
Nc1ncc(I)c(-c2c[nH]c3cccc([N+](=O)[O-])c23)n1,IC50,PC-3,7 µM
same,IC50,[1],9.1 µM
same,IC50,[2],> 10 µM
same,IC50,PA-1,3.3 µM
same,IC50,[3],> 10 µM
same,IC50,[4],5 µM
same,IC50,MCF7,> 10 µM
same,IC50,[5],> 10 µM
same,IC50,HT-22,> 10 µM
same,IC50,SH-SY5Y,> 10 µM
same,IC50,IMR-32,> 10 µM
same,IC50,[6],7.1 µM
same,IC50,DU-145,5.4 µM
Nc1ncc(I)c(-c2c[nH]c3cc(Br)ccc23)n1,IC50,PC-3,2.9 µM
same,IC50,[1],0.034 µM
same,IC50,[2],0.7 µM
same,IC50,PA-1,< 1 µM
same,IC50,[3],0.68 µM
same,IC50,[4],3.5 µM
same,IC50,MCF7,5.2 µM
same,IC50,[5],1.1 µM
same,IC50,HT-22,5.1 µM
same,IC50,SH-SY5Y,3.2 µM
same,IC50,IMR-32,3.8 µM
same,IC50,[6],0.032 µM
same,IC50,DU-145,< 1 µM
Nc1ncc(I)c(-c2c[nH]c3c(Br)cccc23)n1,IC50,PC-3,15 µM
same,IC50,[1],0.039 µM
same,IC50,[2],1.6 µM
same,IC50,PA-1,2 µM
same,IC50,[3],2.1 µM
same,IC50,[4],10 µM
same,IC50,MCF7,17 µM
same,IC50,[5],4 µM
same,IC50,HT-22,12 µM
same,IC50,SH-SY5Y,8 µM
same,IC50,IMR-32,7.3 µM
same,IC50,[6],0.042 µM
same,IC50,DU-145,4.2 µM
CC(=O)c1ccc(-c2cnc(N)nc2-c2c[nH]c3cc(Br)ccc23)cc1,IC50,PC-3,< 0.6 µM
same,IC50,[1],> 10 µM
same,IC50,[2],> 10 µM
same,IC50,PA-1,< 0.6 µM
same,IC50,[3],> 10 µM
same,IC50,[4],< 0.6 µM
same,IC50,MCF7,1 µM
same,IC50,[5],2 µM
same,IC50,HT-22,2.5 µM
same,IC50,SH-SY5Y,0.4 µM
same,IC50,IMR-32,0.33 µM
same,IC50,[6],1.8 µM
same,IC50,DU-145,< 0.6 µM
CC(=O)c1ccc(-c2cnc(N)nc2-c2c[nH]c3c(Br)cccc23)cc1,IC50,PC-3,3.6 µM
same,IC50,[1],0.29 µM
same,IC50,[2],> 10 µM
same,IC50,PA-1,0.8 µM
same,IC50,[3],> 10 µM
same,IC50,[4],18.4 µM
same,IC50,MCF7,> 10 µM
same,IC50,[5],4.5 µM
same,IC50,HT-22,> 10 µM
same,IC50,SH-SY5Y,> 10 µM
same,IC50,IMR-32,> 10 µM
same,IC50,[6],0.38 µM
same,IC50,DU-145,5.7 µM
